Measurements published in paper PMC11270923 (BMC Chemistry, 2024).

Legend:
[1] = 298.15 K, methanol + water, 0.1 methanol weight fraction; cited from earlier work
[2] = Shake-flask solubility of acetaminophen in aqueous protic ionic liquid solutions (UV-vis at 243 nm); format: physicochemical
Description: The experimental solubility results were determined using a variety of techniques, including the shake-flask method. Aqueous binary mixtures based on PILs have been made utilizing an analytical balance with a 10^–4 g precision for determining the solubility results. Glass vials with a specific amount of water + PILs were filled with the extra acetaminophen. Following that, the samples were combined for 3 h and left for three days in a water bath thermostat (ED, Julabo Co., Germany) with temperature control and an uncertainty of 0.01 K. To separate the liquid and solid phases, a Hettich D-7200 centrifuge was employed (with 4000 RPM at room temperature at 10 min). An ethanol + water solution was applied to dilute the liquid phase after the saturated solutions were filtered through a […] PTFE filter. Subsequently, the drug concentration in the solutions was ascertained using a calibration curve and a UV–vis spectrometer at 243 nm.

CC(=O)Nc1ccc(O)cc1 [ACP, Acetaminophen]
ACP solubility [1]: 2.65 × 10^–3 mole fraction
solubility 10^5x1^exp ([2]; water+[DEA]La w3=0.0000 298.15 K 866 hPa): 1.839 mole fraction x10^5
solubility 10^5x1^exp ([2]; water+[DEA]La w3=0.0000 303.15 K 866 hPa): 2.239 mole fraction x10^5
solubility 10^5x1^exp ([2]; water+[DEA]La w3=0.0000 308.15 K 866 hPa): 2.545 mole fraction x10^5
solubility 10^5x1^exp ([2]; water+[DEA]La w3=0.0000 313.15 K 866 hPa): 3.009 mole fraction x10^5
solubility 10^5x1^exp ([2]; water+[DEA]La w3=0.0200 298.15 K 866 hPa): 2.492 mole fraction x10^5
solubility 10^5x1^exp ([2]; water+[DEA]La w3=0.0200 303.15 K 866 hPa): 3.159 mole fraction x10^5
solubility 10^5x1^exp ([2]; water+[DEA]La w3=0.0200 308.15 K 866 hPa): 3.555 mole fraction x10^5
solubility 10^5x1^exp ([2]; water+[DEA]La w3=0.0200 313.15 K 866 hPa): 3.722 mole fraction x10^5
solubility 10^5x1^exp ([2]; water+[DEA]La w3=0.0500 298.15 K 866 hPa): 3.181 mole fraction x10^5
solubility 10^5x1^exp ([2]; water+[DEA]La w3=0.0500 303.15 K 866 hPa): 3.576 mole fraction x10^5
solubility 10^5x1^exp ([2]; water+[DEA]La w3=0.0500 308.15 K 866 hPa): 3.917 mole fraction x10^5
solubility 10^5x1^exp ([2]; water+[DEA]La w3=0.0500 313.15 K 866 hPa): 4.227 mole fraction x10^5
solubility 10^5x1^exp ([2]; water+[DEA]La w3=0.0700 298.15 K 866 hPa): 3.452 mole fraction x10^5
solubility 10^5x1^exp ([2]; water+[DEA]La w3=0.0700 303.15 K 866 hPa): 3.977 mole fraction x10^5
solubility 10^5x1^exp ([2]; water+[DEA]La w3=0.0700 308.15 K 866 hPa): 4.167 mole fraction x10^5
solubility 10^5x1^exp ([2]; water+[DEA]La w3=0.0700 313.15 K 866 hPa): 4.514 mole fraction x10^5
solubility 10^5x1^exp ([2]; water+[DEA]La w3=0.1000 298.15 K 866 hPa): 3.849 mole fraction x10^5
solubility 10^5x1^exp ([2]; water+[DEA]La w3=0.1000 303.15 K 866 hPa): 4.220 mole fraction x10^5
solubility 10^5x1^exp ([2]; water+[DEA]La w3=0.1000 308.15 K 866 hPa): 4.793 mole fraction x10^5
solubility 10^5x1^exp ([2]; water+[DEA]La w3=0.1000 313.15 K 866 hPa): 5.266 mole fraction x10^5
solubility 10^5x1^exp ([2]; water+[DEA]La w3=0.1500 298.15 K 866 hPa): 4.290 mole fraction x10^5
solubility 10^5x1^exp ([2]; water+[DEA]La w3=0.1500 303.15 K 866 hPa): 4.611 mole fraction x10^5
solubility 10^5x1^exp ([2]; water+[DEA]La w3=0.1500 308.15 K 866 hPa): 5.038 mole fraction x10^5
solubility 10^5x1^exp ([2]; water+[DEA]La w3=0.1500 313.15 K 866 hPa): 5.633 mole fraction x10^5
solubility 10^5x1^exp ([2]; water+[DEA]La w3=0.2000 298.15 K 866 hPa): 4.669 mole fraction x10^5
solubility 10^5x1^exp ([2]; water+[DEA]La w3=0.2000 303.15 K 866 hPa): 5.223 mole fraction x10^5
solubility 10^5x1^exp ([2]; water+[DEA]La w3=0.2000 308.15 K 866 hPa): 5.710 mole fraction x10^5
solubility 10^5x1^exp ([2]; water+[DEA]La w3=0.2000 313.15 K 866 hPa): 6.188 mole fraction x10^5
solubility 10^5x1^exp ([2]; water+[MEA]La w3=0.0000 298.15 K 866 hPa): 1.839 mole fraction x10^5
solubility 10^5x1^exp ([2]; water+[MEA]La w3=0.0000 303.15 K 866 hPa): 2.239 mole fraction x10^5
solubility 10^5x1^exp ([2]; water+[MEA]La w3=0.0000 308.15 K 866 hPa): 2.545 mole fraction x10^5
solubility 10^5x1^exp ([2]; water+[MEA]La w3=0.0000 313.15 K 866 hPa): 3.009 mole fraction x10^5
solubility 10^5x1^exp ([2]; water+[MEA]La w3=0.0200 298.15 K 866 hPa): 2.750 mole fraction x10^5
solubility 10^5x1^exp ([2]; water+[MEA]La w3=0.0200 303.15 K 866 hPa): 3.417 mole fraction x10^5
solubility 10^5x1^exp ([2]; water+[MEA]La w3=0.0200 308.15 K 866 hPa): 3.802 mole fraction x10^5
solubility 10^5x1^exp ([2]; water+[MEA]La w3=0.0200 313.15 K 866 hPa): 4.007 mole fraction x10^5
solubility 10^5x1^exp ([2]; water+[MEA]La w3=0.0500 298.15 K 866 hPa): 3.256 mole fraction x10^5
solubility 10^5x1^exp ([2]; water+[MEA]La w3=0.0500 303.15 K 866 hPa): 3.861 mole fraction x10^5
solubility 10^5x1^exp ([2]; water+[MEA]La w3=0.0500 308.15 K 866 hPa): 4.055 mole fraction x10^5
solubility 10^5x1^exp ([2]; water+[MEA]La w3=0.0500 313.15 K 866 hPa): 4.320 mole fraction x10^5
solubility 10^5x1^exp ([2]; water+[MEA]La w3=0.0700 298.15 K 866 hPa): 3.884 mole fraction x10^5
solubility 10^5x1^exp ([2]; water+[MEA]La w3=0.0700 303.15 K 866 hPa): 4.588 mole fraction x10^5
solubility 10^5x1^exp ([2]; water+[MEA]La w3=0.0700 308.15 K 866 hPa): 4.675 mole fraction x10^5
solubility 10^5x1^exp ([2]; water+[MEA]La w3=0.0700 313.15 K 866 hPa): 5.025 mole fraction x10^5
solubility 10^5x1^exp ([2]; water+[MEA]La w3=0.1000 298.15 K 866 hPa): 4.380 mole fraction x10^5
solubility 10^5x1^exp ([2]; water+[MEA]La w3=0.1000 303.15 K 866 hPa): 4.807 mole fraction x10^5
solubility 10^5x1^exp ([2]; water+[MEA]La w3=0.1000 308.15 K 866 hPa): 5.407 mole fraction x10^5
solubility 10^5x1^exp ([2]; water+[MEA]La w3=0.1000 313.15 K 866 hPa): 5.600 mole fraction x10^5
solubility 10^5x1^exp ([2]; water+[MEA]La w3=0.1500 298.15 K 866 hPa): 4.962 mole fraction x10^5
solubility 10^5x1^exp ([2]; water+[MEA]La w3=0.1500 303.15 K 866 hPa): 5.658 mole fraction x10^5
solubility 10^5x1^exp ([2]; water+[MEA]La w3=0.1500 308.15 K 866 hPa): 6.128 mole fraction x10^5
solubility 10^5x1^exp ([2]; water+[MEA]La w3=0.1500 313.15 K 866 hPa): 6.665 mole fraction x10^5
solubility 10^5x1^exp ([2]; water+[MEA]La w3=0.2000 298.15 K 866 hPa): 5.589 mole fraction x10^5
solubility 10^5x1^exp ([2]; water+[MEA]La w3=0.2000 303.15 K 866 hPa): 6.123 mole fraction x10^5
solubility 10^5x1^exp ([2]; water+[MEA]La w3=0.2000 308.15 K 866 hPa): 6.695 mole fraction x10^5
solubility 10^5x1^exp ([2]; water+[MEA]La w3=0.2000 313.15 K 866 hPa): 7.337 mole fraction x10^5
solubility 10^5x1^exp ([2]; water+[TEA]La w3=0.0000 298.15 K 866 hPa): 1.839 mole fraction x10^5
solubility 10^5x1^exp ([2]; water+[TEA]La w3=0.0000 303.15 K 866 hPa): 2.239 mole fraction x10^5
solubility 10^5x1^exp ([2]; water+[TEA]La w3=0.0000 308.15 K 866 hPa): 2.545 mole fraction x10^5
solubility 10^5x1^exp ([2]; water+[TEA]La w3=0.0000 313.15 K 866 hPa): 3.009 mole fraction x10^5
solubility 10^5x1^exp ([2]; water+[TEA]La w3=0.0200 298.15 K 866 hPa): 2.161 mole fraction x10^5
solubility 10^5x1^exp ([2]; water+[TEA]La w3=0.0200 303.15 K 866 hPa): 2.632 mole fraction x10^5
solubility 10^5x1^exp ([2]; water+[TEA]La w3=0.0200 308.15 K 866 hPa): 2.940 mole fraction x10^5
solubility 10^5x1^exp ([2]; water+[TEA]La w3=0.0200 313.15 K 866 hPa): 3.334 mole fraction x10^5
solubility 10^5x1^exp ([2]; water+[TEA]La w3=0.0500 298.15 K 866 hPa): 2.597 mole fraction x10^5
solubility 10^5x1^exp ([2]; water+[TEA]La w3=0.0500 303.15 K 866 hPa): 2.944 mole fraction x10^5
solubility 10^5x1^exp ([2]; water+[TEA]La w3=0.0500 308.15 K 866 hPa): 3.210 mole fraction x10^5
solubility 10^5x1^exp ([2]; water+[TEA]La w3=0.0500 313.15 K 866 hPa): 3.521 mole fraction x10^5
solubility 10^5x1^exp ([2]; water+[TEA]La w3=0.0700 298.15 K 866 hPa): 2.908 mole fraction x10^5
solubility 10^5x1^exp ([2]; water+[TEA]La w3=0.0700 303.15 K 866 hPa): 3.461 mole fraction x10^5
solubility 10^5x1^exp ([2]; water+[TEA]La w3=0.0700 308.15 K 866 hPa): 3.584 mole fraction x10^5
solubility 10^5x1^exp ([2]; water+[TEA]La w3=0.0700 313.15 K 866 hPa): 3.929 mole fraction x10^5
solubility 10^5x1^exp ([2]; water+[TEA]La w3=0.1000 298.15 K 866 hPa): 3.094 mole fraction x10^5
solubility 10^5x1^exp ([2]; water+[TEA]La w3=0.1000 303.15 K 866 hPa): 3.834 mole fraction x10^5
solubility 10^5x1^exp ([2]; water+[TEA]La w3=0.1000 308.15 K 866 hPa): 4.208 mole fraction x10^5
solubility 10^5x1^exp ([2]; water+[TEA]La w3=0.1000 313.15 K 866 hPa): 4.349 mole fraction x10^5
solubility 10^5x1^exp ([2]; water+[TEA]La w3=0.1500 298.15 K 866 hPa): 3.958 mole fraction x10^5
solubility 10^5x1^exp ([2]; water+[TEA]La w3=0.1500 303.15 K 866 hPa): 4.151 mole fraction x10^5
solubility 10^5x1^exp ([2]; water+[TEA]La w3=0.1500 308.15 K 866 hPa): 4.940 mole fraction x10^5
solubility 10^5x1^exp ([2]; water+[TEA]La w3=0.1500 313.15 K 866 hPa): 5.167 mole fraction x10^5
solubility 10^5x1^exp ([2]; water+[TEA]La w3=0.2000 298.15 K 866 hPa): 4.309 mole fraction x10^5
solubility 10^5x1^exp ([2]; water+[TEA]La w3=0.2000 303.15 K 866 hPa): 4.778 mole fraction x10^5
solubility 10^5x1^exp ([2]; water+[TEA]La w3=0.2000 308.15 K 866 hPa): 5.362 mole fraction x10^5
solubility 10^5x1^exp ([2]; water+[TEA]La w3=0.2000 313.15 K 866 hPa): 5.751 mole fraction x10^5
